Consider 20 compounds from patent publication US20110230465A1, “VIRAL POLYMERASE INHIBITORS” (BOEHRINGER INGLEHEIM INTERNATIONAL GMBH, priority 2009, published 2011).

By IC50 is commonly meant the concentration needed to halve the response being measured. As usually defined, the EC50 is the concentration giving half of the maximal effect.

Experiment [1] has as its target T1, hepatitis C virus RNA dependent polymerase (NS5B) (Hepatitis C virus genotype 1b, UniProt P26663).
T1 construct: the RNA dependent RNA polymerase of HCV, specifically, the enzyme NS5B encoded by HCV
The experiment is described as follows: Inhibition of NS5B RNA dependent RNA polymerase activity. The format is biochemical. Particulars: assay of Example 158A; read-out: IC50 (nM) Ex 158A (converted). As to the method:
Inhibition of NS5B RNA Dependent RNA Polymerase Activity
Representative compounds of the invention are tested for inhibitory activity against the hepatitis C virus RNA dependent polymerase (NS5B), using the assay described in WO2009/018657, herein incorporated by reference.

In experiment [2] the test system is HCV RNA replication in Huh-7 cells with a stable subgenomic HCV replicon (MP-1 cells). Description: microbe, parasite or virus in culture. In kind it is cell-based. Particulars: Hepatitis C virus, assay of Example 159A, read-out: EC50 (nM) Ex 159A (converted).

T1 sequence (P26663 2420-3010): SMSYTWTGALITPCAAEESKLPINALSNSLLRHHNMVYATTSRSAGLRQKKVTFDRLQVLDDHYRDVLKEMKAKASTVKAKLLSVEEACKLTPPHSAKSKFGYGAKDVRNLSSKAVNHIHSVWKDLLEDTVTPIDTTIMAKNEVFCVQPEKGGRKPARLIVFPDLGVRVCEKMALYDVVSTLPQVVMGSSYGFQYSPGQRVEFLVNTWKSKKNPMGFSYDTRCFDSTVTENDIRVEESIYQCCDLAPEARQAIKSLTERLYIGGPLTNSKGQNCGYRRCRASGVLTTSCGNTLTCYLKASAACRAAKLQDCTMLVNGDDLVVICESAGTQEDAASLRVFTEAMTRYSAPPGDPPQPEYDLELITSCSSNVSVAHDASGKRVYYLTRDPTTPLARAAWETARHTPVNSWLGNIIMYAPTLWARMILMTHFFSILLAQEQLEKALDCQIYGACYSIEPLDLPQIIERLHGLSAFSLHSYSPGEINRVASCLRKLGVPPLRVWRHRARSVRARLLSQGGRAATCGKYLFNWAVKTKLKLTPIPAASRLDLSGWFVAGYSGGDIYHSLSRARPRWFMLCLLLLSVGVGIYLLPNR

Regarding `CCNc1ccc(-c2cccc(Oc3ccc4c(c3)c(=O)ncn4[C@H](C)c3c(F)cc(F)cc3F)c2C(F)(F)F)cn1` [Compound 9001], the 50% inhibitory concentration (IC50) in experiment [1] was 23 nM.
As for `COCCOc1ccnc(Oc2ccc3c(c2)c(=O)ncn3Cc2c(F)cc(F)cc2F)c1C(F)(F)F` [Compound 4003], the EC50 in experiment [2] is 61 nM. Moreover, the IC50 in experiment [1] was 67 nM.
Consider `CCc1nc(=O)c2cc(Oc3ncccc3C(F)(F)F)ccc2n1-c1cccnc1-c1ccc(C)cc1F` [Compound 8011], for which the EC50 in experiment [2] was 4800 nM. Besides, the IC50 in experiment [1] is 34500 nM.
For `Cc1ccc(-c2ncccc2-n2cnc(=O)c3cc(Oc4ncccc4C(F)(F)F)ccc32)cc1` [Compound 3090] the same measures were 82 nM and 130 nM.
For `O=c1ncn(Cc2c(F)cc(F)cc2F)c2ccc(Oc3cccc(-c4cccc5[nH]ccc45)c3C(F)(F)F)cc12` [Compound 9016] the same measures were 2.2 nM and 25 nM.
With `C[C@H](c1c(F)cc(F)cc1F)n1cnc(=O)c2cc(Oc3cccc(-c4ncc(N)cn4)c3C(F)(F)F)ccc21` [Compound 9011], the IC50 in experiment [1] is 7.8 nM.
Turning to `Cc1ncccc1NC(=O)c1ccc(Oc2ccc3c(c2)c(=O)ncn3Cc2c(F)cc(F)cc2F)c(C(F)(F)F)c1` [Compound 6047], the EC50 in experiment [2] is 10 nM. For the same compound, the IC50 in experiment [1] is 15 nM.
For `CN(C)c1cc2c(cc1Oc1ncccc1C(F)(F)F)c(=O)ncn2Cc1ccc(F)cc1F` [Compound 8009], the EC50 in experiment [2] is above 10000 nM.
In the case of `O=c1ncn(Cc2c(F)cc(F)cc2F)c2ccc(Oc3cccc(-c4ccc5nonc5c4)c3C(F)(F)F)cc12` [Compound 9020], in experiment [2], the EC50 is 199 nM. In experiment [1], the IC50 is 107 nM.
The like results for `Cc1c(-c2cccc(Oc3ccc4c(c3)c(=O)ncn4Cc3c(F)cc(F)cc3F)c2C(F)(F)F)cnn1-c1ccccc1` [Compound 9019] were, in that order, 183 nM and 51 nM.
The like results for `Cc1ccc(Cn2cnc(=O)c3cc(Oc4ccc(C(N)=O)cc4)ccc32)c(F)c1` [Compound 1030] were, in that order, 8500 nM and 610 nM.
`C[C@H](c1c(F)cc(F)cc1F)n1cnc(=O)c2cc(Oc3cccc(-c4ccc(N)nc4)c3C(F)(F)F)ccc21` [Compound 9003]: the EC50 in experiment [2] was 4 nM. In addition, in experiment [1], the IC50 was 18 nM.
For `Cc1ccc(Cn2cnc(=O)c3cc(Oc4ncccc4C(F)(F)F)ccc32)c(-c2ccsc2)c1` [Compound 3052] the same measures were 210 nM and 110 nM.
For `O=c1ncn(Cc2ccc(F)cc2F)c2ccc(Oc3ncc(Cn4nccn4)cc3C(F)(F)F)cc12` [Compound 5001] the same measures were 470 nM and 240 nM.
Consider `N#Cc1cc(-c2cccc(Oc3ccc4c(c3)c(=O)ncn4Cc3c(F)cc(F)cc3F)c2C(F)(F)F)cnc1N` [Compound 9026], for which the IC50 in experiment [1] is 28 nM.
For `O=c1ncn(Cc2c(F)cc(F)cc2F)c2ccc(O[C@H]3CC[C@H](CO)CC3)cc12` [Compound 2061], the EC50 in experiment [2] was 2500 nM. Also, in experiment [1], the 50% inhibitory concentration (IC50) was 530 nM.
The like results for `NC(=O)Cc1cccc(Oc2ccc3c(c2)c(=O)ncn3Cc2c(F)cc(F)cc2F)c1C(F)(F)F` [Compound 6036] were, in that order, 60 nM and 18 nM.
With `Cc1nc(-c2cccc(Oc3ccc4c(c3)c(=O)ncn4[C@H](C)c3c(F)cc(F)cc3F)c2C(F)(F)F)ncc1N` [Compound 9025], the IC50 in experiment [1] is 14 nM.
On to `CN(C)C(=O)c1cccc(Oc2ccc3c(c2)c(=O)ncn3Cc2c(F)cc(F)cc2F)c1` [Compound 7034], for which the EC50 in experiment [2] was 5700 nM. Besides, in experiment [1], the IC50 was 4900 nM.
For `O=c1ncn(Cc2c(F)cc(F)cc2F)c2ccc(Oc3ncc(Cc4nn[nH]n4)cc3C(F)(F)F)cc12` [Compound 4020], the EC50 in experiment [2] was 5400 nM. In addition, in experiment [1], the IC50 is 78 nM.
